According to patent US6706663B2, “Herbicidal 3-heterocyclic substituted benzisothiazole and benzisoxazole compounds” (Wyeth, priority 2000, dated 2004):

Key:
[1] = test system: ZEAMX (Corn, Field); test: Preemergence herbicidal evaluation; format: in vivo, Zea mays, L.; conditions: Rate 0.0620 kg/ha; rated 4-5 weeks after treatment
Description: (§1) Results of herbicide evaluation are expressed on a rating scale (0-9). The scale is based upon a visual observation of plant stand, vigor, malformation, size, chlorosis and overall plant appearance as compared with a control.
(§2) The preemergence herbicidal activity of the test compounds of the present invention is exemplified by the following tests in which the seeds of a variety of monocotyledonous and dicotyledonous plants are separately mixed with potting soil and planted on top of approximately one inch of soil in separate pint cups. […] The treated cups are then placed on greenhouse benches, watered and cared for in accordance with conventional greenhouse procedures. From four to five weeks after treatment, the tests are terminated and each cup is examined and rated according to the rating system provided in Example 87. The plant species used and the compounds evaluated are the same as those shown in Example 87.

[2] = test system: MOOVA (Monochoria vaginalis); test: Flooded paddy, preemergence weed control; format: in vivo, Presl.; conditions: rated 3-4 weeks after treatment, 0-9 rating scale
Description: as §1
(§3) Preemergence herbicidal activity under flooded paddy conditions is determined as follows: plant seeds or propagating organs are planted in the top 0.5 cm of silt loam soil in 32 oz. plastic containers with a diameter of 10.5 cm and no drainage holes. Water is added to these containers and maintained at 1.5 to 3 cm above the soil surface for the duration of the experiment. […] The treated containers are placed on greenhouse benches and cared for in accordance with conventional greenhouse procedures.

[3] = test system: ZEAMX (Corn, Field); test: Postemergence herbicidal evaluation; format: in vivo, Zea mays, L.; conditions: postemergence
Description: (§4) In the tests, seedling plants are grown in jiffy flats for about two weeks. […] After spraying, the plants are placed on greenhouse benches and are cared for in accordance with conventional greenhouse procedures. From four to five weeks after treatment, the seedling plants are examined and rated according to the rating system set forth below. Where more than one test is involved for a given compound, the data are averaged.
as §1

[4] = test system: TRZAWR (Wheat, Winter, cv Riband); test: Postemergence herbicidal evaluation; format: in vivo, Triticum aestivum; conditions: postemergence
Description: as §4, §1

[5] = test system: SETVI (Setaria viridis); test: Preemergence herbicidal evaluation; format: in vivo, (L.) Beau; conditions: Rate 0.0620 kg/ha; rated 4-5 weeks after treatment
Description: as §1, §2

[6] = test system: ECHCG (Echinochloa crus-galli); test: Preemergence herbicidal evaluation; format: in vivo, (L.) Beau; conditions: Rate 0.0620 kg/ha; rated 4-5 weeks after treatment
Description: as §1, §2

[7] = test system: CYPIR (Cyperus iria); test: Flooded paddy, preemergence weed control; format: in vivo; conditions: rated 3-4 weeks after treatment, 0-9 rating scale
Description: as §1, §3

[8] = test system: ABUTH (Abutilon theophrasti); test: Postemergence herbicidal evaluation; format: in vivo, Medic.; conditions: postemergence
Description: as §4, §1

[9] = test system: CHEAL (Chenopodium album); test: Postemergence herbicidal evaluation; format: in vivo, L.; conditions: postemergence
Description: as §4, §1

[10] = test system: CASOB (Cassia obtusifolia); test: Postemergence herbicidal evaluation; format: in vivo, L.; conditions: postemergence
Description: as §4, §1

[11] = test system: AMBEL (Ambrosia artemisifolia); test: Postemergence herbicidal evaluation; format: in vivo, L.; conditions: postemergence
Description: as §4, §1

[12] = test system: GLXMAW (Soybean, Williams); test: Postemergence herbicidal evaluation; format: in vivo, Glycine max, (L.) Merr. cv Williams; conditions: postemergence
Description: as §4, §1

[13] = test system: GALAP (Galium aparine); test: Postemergence herbicidal evaluation; format: in vivo; conditions: postemergence
Description: as §4, §1

[14] = test system: ABUTH (Abutilon theophrasti); test: Preemergence herbicidal evaluation; format: in vivo, Medic.; conditions: Rate 0.0620 kg/ha; rated 4-5 weeks after treatment
Description: as §1, §2

[15] = test system: IPOHE (Ipomoea hederacea); test: Postemergence herbicidal evaluation; format: in vivo, (L.) Jacq.; conditions: postemergence
Description: as §4, §1

[16] = test system: ORYSAT (Rice, Tebonnet); test: Preemergence herbicidal evaluation; format: in vivo, Oryza sativa, (L.) Tebonnet; conditions: Rate 0.0620 kg/ha; rated 4-5 weeks after treatment
Description: as §1, §2

[17] = test system: ECHORC (Echinochloa oryzoides); test: Flooded paddy, preemergence weed control; format: in vivo, Echinochloa oryzoides (Ard.) Fritsch.; conditions: rated 3-4 weeks after treatment, 0-9 rating scale
Description: as §1, §3

[18] = test system: SAGPY (Sagittaria pygmaea); test: Flooded paddy, preemergence weed control; format: in vivo, L.; conditions: rated 3-4 weeks after treatment, 0-9 rating scale
Description: as §1, §3

[19] = test system: TRZAWR (Wheat, Winter, cv Riband); test: Preemergence herbicidal evaluation; format: in vivo, Triticum aestivum; conditions: Rate 0.0620 kg/ha; rated 4-5 weeks after treatment
Description: as §1, §2

[20] = test system: SETVI (Setaria viridis); test: Postemergence herbicidal evaluation; format: in vivo, (L.) Beau; conditions: postemergence
Description: In the tests, seedling plants are grown in jiffy flats for about two weeks. The test compounds are dispersed in 50/50 acetone/water mixtures containing 0.5% TWEEN® 20, a polyoxyethylene sorbitan monolaurate surfactant of Atlas Chemical Industries, in sufficient quantities to provide the equivalent of about 0.0040 kg to 1.000 kg per hectare of active compound when applied to the plants through a spray nozzle operating at 40 psi for a predetermined time. After spraying, the plants are placed on greenhouse benches and are cared for in accordance with conventional greenhouse procedures. From four to five weeks after treatment, the seedling plants are examined and rated according to the rating system set forth below. Where more than one test is involved for a given compound, the data are averaged.
as §1

[21] = test system: ORYSAT (Rice, Tebonnet); test: Postemergence herbicidal evaluation; format: in vivo, Oryza sativa, (L.) Tebonnet; conditions: postemergence
Description: as §4, §1

[22] = test system: CHEAL (Chenopodium album); test: Preemergence herbicidal evaluation; format: in vivo, L.; conditions: Rate 0.0620 kg/ha; rated 4-5 weeks after treatment
Description: as §1, §2

[23] = test system: CASOB (Cassia obtusifolia); test: Preemergence herbicidal evaluation; format: in vivo, L.; conditions: Rate 0.0620 kg/ha; rated 4-5 weeks after treatment
Description: as §1, §2

[24] = test system: AMBEL (Ambrosia artemisifolia); test: Preemergence herbicidal evaluation; format: in vivo, L.; conditions: Rate 0.0620 kg/ha; rated 4-5 weeks after treatment
Description: as §1, §2

[25] = test system: IPOHE (Ipomoea hederacea); test: Preemergence herbicidal evaluation; format: in vivo, (L.) Jacq.; conditions: Rate 0.0620 kg/ha; rated 4-5 weeks after treatment
Description: as §1, §2

[26] = test system: ECHCG (Echinochloa crus-galli); test: Postemergence herbicidal evaluation; format: in vivo, (L.) Beau; conditions: postemergence
Description: as §4, §1

[27] = test system: GLXMAW (Soybean, Williams); test: Preemergence herbicidal evaluation; format: in vivo, Glycine max, (L.) Merr. cv Williams; conditions: Rate 0.0620 kg/ha; rated 4-5 weeks after treatment
Description: as §1, §2

[28] = test system: GALAP (Galium aparine); test: Preemergence herbicidal evaluation; format: in vivo; conditions: Rate 0.0620 kg/ha; rated 4-5 weeks after treatment
Description: as §1, §2

## C[C@@H]1OC(c2nsc3cc(F)c(-n4c(=O)cc(C(F)(F)F)n(C)c4=O)cc23)O[C@@H]1C (stereo partly drawn) [Compound 66, 3-[3-[(4R,5S-)-4,5-dimethyl-1,3-dioxolan-2-yl]-6-fluoro-1,2-benzisothiazol-5-yl]-1-methyl-6-(trifluoromethyl)uracil]
[1]
  Preemergence herbicidal rating ZEAMX: 8.0
[2]; rate 0.0080 kg/ha
  herbicidal rating, MOOVA: 0.0
[2]; rate 0.0320 kg/ha
  herbicidal rating, MOOVA: 9.0
[2]; rate 0.1250 kg/ha
  herbicidal rating, MOOVA: 9.0
[3]; rate 0.0320 kg/ha
  ZEAMX herbicidal rating: 5.5
[3]; rate 0.0620 kg/ha
  ZEAMX herbicidal rating: 5.5
[4]; rate 0.0320 kg/ha
  TRZAWR herbicidal rating: 4.0
[4]; rate 0.0620 kg/ha
  TRZAWR herbicidal rating: 4.0
[5]
  Preemergence herbicidal rating SETVI: 9.0
[6]
  Preemergence herbicidal rating ECHCG: 9.0
[7]; rate 0.0080 kg/ha
  herbicidal rating, CYPIR: 2.5
[7]; rate 0.0320 kg/ha
  herbicidal rating, CYPIR: 6.0
[7]; rate 0.1250 kg/ha
  herbicidal rating, CYPIR: 9.0
[8]; rate 0.0320 kg/ha
  ABUTH herbicidal rating: 9.0
[8]; rate 0.0620 kg/ha
  ABUTH herbicidal rating: 9.0
[9]; rate 0.0320 kg/ha
  CHEAL herbicidal rating: 9.0
[9]; rate 0.0620 kg/ha
  CHEAL herbicidal rating: 9.0
[10]; rate 0.0320 kg/ha
  CASOB herbicidal rating: 8.0
[10]; rate 0.0620 kg/ha
  CASOB herbicidal rating: 9.0
[11]; rate 0.0320 kg/ha
  AMBEL herbicidal rating: 9.0
[11]; rate 0.0620 kg/ha
  AMBEL herbicidal rating: 9.0
[12]; rate 0.0320 kg/ha
  GLXMAW herbicidal rating: 9.0
[12]; rate 0.0620 kg/ha
  GLXMAW herbicidal rating: 9.0
[13]; rate 0.0320 kg/ha
  GALAP herbicidal rating: 9.0
[13]; rate 0.0620 kg/ha
  GALAP herbicidal rating: 9.0
[14]
  Preemergence herbicidal rating ABUTH: 9.0
[15]; rate 0.0320 kg/ha
  IPOHE herbicidal rating: 9.0
[15]; rate 0.0620 kg/ha
  IPOHE herbicidal rating: 9.0
[16]
  Preemergence herbicidal rating ORYSAT: 8.5
[17]; rate 0.0080 kg/ha
  herbicidal rating, ECHORC: 4.5
[17]; rate 0.0320 kg/ha
  herbicidal rating, ECHORC: 9.0
[17]; rate 0.1250 kg/ha
  herbicidal rating, ECHORC: 9.0
[18]; rate 0.0080 kg/ha
  herbicidal rating, SAGPY: 2.5
[18]; rate 0.0320 kg/ha
  herbicidal rating, SAGPY: 9.0
[18]; rate 0.1250 kg/ha
  herbicidal rating, SAGPY: 9.0
[19]
  Preemergence herbicidal rating TRZAWR: 8.0
[20]; rate 0.0320 kg/ha
  SETVI herbicidal rating: 8.0
[20]; rate 0.0620 kg/ha
  SETVI herbicidal rating: 9.0
[21]; rate 0.0320 kg/ha
  ORYSAT herbicidal rating: 4.5
[21]; rate 0.0620 kg/ha
  ORYSAT herbicidal rating: 4.5
[22]
  Preemergence herbicidal rating CHEAL: 9.0
[23]
  Preemergence herbicidal rating CASOB: 6.0
[24]
  Preemergence herbicidal rating AMBEL: 9.0
[25]
  Preemergence herbicidal rating IPOHE: 7.5
[26]; rate 0.0320 kg/ha
  ECHCG herbicidal rating: 2.0
[26]; rate 0.0620 kg/ha
  ECHCG herbicidal rating: 5.0
[27]
  Preemergence herbicidal rating GLXMAW: 9.0
[28]
  Preemergence herbicidal rating GALAP: 7.0
